Data taken from patent US11679110B2, “Methods of treating disorders using CSF1R inhibitors” (Deciphera Pharmaceuticals, LLC, priority 2018, dated 2023).
pIC50: −log10 of the molar value.

Key:
CSF1 = assay: Plasma CSF1 levels in patients, ELISA; assay type: in vivo, human; conditions: average at C2D1 vs C1D1
Method: PK analysis was conducted on all 38 patients. Serial blood samples were collected for PK and took place on either Day −7, Cycle 1, Day 1 (C1D1) and C2D1 at pre-dose, 0.5, 1, 2, 4, 6, 8, 10-12, and 24 hr time points or Day −7, C1D1, C1D8, and C2D1 at pre-dose, 1, 2, 4, 6, and 8 hr time points, or C1D1, C1D8, and C2D1 at pre-dose, 1, 2, 4, 6, and 8 hr time points. High fat meal was given prior to dosing of Compound 1 on Day −7. PD effects were measured by two methodologies: 1) depletion of CSF1R-expressing monocytes in peripheral blood (Cohorts 1-7) from C1D1, C1D15 and C2D1; and 2) increase of plasma levels of CSF1 and IL-34, the ligands for CSF1R (Cohorts 1-7) on C1D1, C1D15, and C2D1. For the CD16^+ monocyte assay, whole blood collected in an EDTA vacutainer was aliquoted into tubes and incubated with fluorescently-labeled antibodies (CD14-Alexa488 (BD Pharmingen); CD16-PE-Cy7 (BD Pharmingen); and TIE2-APC (R&D Systems). After incubation, red blood cells were lysed, and the remaining cells were washed several times before being analyzed on a flow cytometer. For the plasma CSF1 assay or IL-34, whole blood collected in an EDTA vacutainer was centrifuged, and the plasma was collected and frozen. Plasma levels of CSF1 or IL-34 were measured using a commercial ELISA kit (R&D Systems).

in vivo [1] = conditions: beagle, dog
[2] = system: CD11b+/F4/80+ intratumoral macrophages; assay: Syngeneic MC38 mouse model of colorectal cancer, tumor-associated macrophages by flow cytometry, 7 days of treatment; assay type: in vivo; conditions: MC38 mice, seven days
Method: The protocol and procedures involving the care and use of animals in the syngeneic MC38 mouse xenograft models below were reviewed and approved by the Institutional Animal Care and Use Committee (IACUC) of CrownBio (Taicang Jiangsu Province, China) prior to conduct. During the study, the care and use of animals was conducted in accordance with the regulations of the Association for Assessment and Accreditation of Laboratory Animal Care (AAALAC). All mice had food and water ad libitum. […] In the first experiment, six- to eight-week old female C57BL/6 mice were inoculated subcutaneously in the right lower flank with one million MC38 tumor cells in Phosphate Buffered Saline. […] Tumor volume and body weight were measured thrice weekly. Tumor burden (mg) was estimated from caliper measurements by the formula: tumor burden (mg=mm^3)=(length×width^2)/2. Tumors were collected at 2 hours post the 7th dose on day 18 and freshly processed to assess infiltrating tumor-associated macrophages by flow cytometry using antibodies to CD11b+, F4/80, and CD45+. First, tumors were washed in phosphate-buffered saline and treated with collagenase and DNase. After treatment, cells were repeatedly passed through a 70 μm cell strainer. Cells were further washed, resuspended in red blood cell lysing buffer, then washed again. […]

[3] = dog, in vivo
[4] = molecular target: unphosphorylated c-KIT kinase (Homo sapiens (Human), UniProt P10721); assay: c-KIT kinase assay, coupled pyruvate kinase/lactate dehydrogenase; assay type: biochemical; conditions: enzymatic assay, 1 mM ATP
[5] = dog, 13-week
[6] = Sprague-Dawley, rat, in vivo, 4 weeks
[7] = human, in vivo
[8] = rat, in vivo
in vivo [9] = conditions: Sprague-Dawley, rat
[10] = dog

Sequence of unphosphorylated c-KIT kinase (P10721 other isoform, or with tags, fused parts or gaps): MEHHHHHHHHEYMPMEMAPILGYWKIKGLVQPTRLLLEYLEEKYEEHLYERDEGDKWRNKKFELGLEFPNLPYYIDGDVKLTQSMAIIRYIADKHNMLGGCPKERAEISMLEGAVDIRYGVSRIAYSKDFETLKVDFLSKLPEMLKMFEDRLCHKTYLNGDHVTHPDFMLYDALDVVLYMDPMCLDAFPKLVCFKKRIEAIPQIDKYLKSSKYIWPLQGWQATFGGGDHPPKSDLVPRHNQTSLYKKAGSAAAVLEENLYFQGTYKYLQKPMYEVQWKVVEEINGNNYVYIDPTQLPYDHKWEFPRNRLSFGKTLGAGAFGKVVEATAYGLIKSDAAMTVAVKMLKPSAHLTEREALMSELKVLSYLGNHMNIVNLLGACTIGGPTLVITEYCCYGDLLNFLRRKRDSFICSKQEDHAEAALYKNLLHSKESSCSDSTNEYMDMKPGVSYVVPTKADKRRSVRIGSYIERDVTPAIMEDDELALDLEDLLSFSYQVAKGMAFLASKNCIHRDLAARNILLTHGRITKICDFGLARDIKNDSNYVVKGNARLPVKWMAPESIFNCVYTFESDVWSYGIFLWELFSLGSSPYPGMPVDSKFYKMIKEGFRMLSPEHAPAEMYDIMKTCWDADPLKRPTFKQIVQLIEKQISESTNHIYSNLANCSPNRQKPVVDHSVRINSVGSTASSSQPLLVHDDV

Cc1nc(-c2cnc(NC(C)C)n(C)c2=O)ccc1Oc1ccnc(-c2cnn(C)c2)c1 [Compound 1, 2-(isopropylamino)-3-methyl-5-(6-methyl-5-((2-(1-methyl-1H-pyrazol-4-yl)pyridin-4-yl)oxy)pyridin-2-yl)pyrimidin-4(3H)-one]
increase in plasma CSF1 (CSF1; Cohort 1): 6 fold | increase in plasma CSF1 (CSF1; Cohort 2): 1.5 fold | increase in plasma CSF1 (CSF1; Cohort 3): 2.9 fold | increase in plasma CSF1 (CSF1; Cohort 4): 3.2 fold | increase in plasma CSF1 (CSF1; Cohort 5): 43 fold | NOAEL at 13 weeks (in vivo [1]): 8 mg/kg/day | reduction in CD11b+/F4/80+ intratumoral macrophages (as a percent of CD45+ cells in the tumor) ([2]; 5, 10, 15 mg/kg QD oral): dose-dependent reduction | reduction of intratumoral macrophages (as a percent of CD45+ cells in the tumor) ([2]; high dose (15 mg/kg QD oral)): ~67% | HNSTD (Highest Non-Serious Toxic Dose) ([3]; beagle, 4 weeks): 7.5 mg/kg/day | safety margin at NOAEL/HNSTD relative to clinical exposure (AUC) [3]: about 2.1 × | pIC50 [4]: 6.06 | microscopic liver changes [5]: without corresponding microscopic liver changes | increases in AST, GLDH and creatine kinase activities ([5]; 8 mg/kg/day): minimal or mild | STD10 (Severely Toxic Dose in 10% of animals) [6]: 15 mg/kg/day | Grade 3/4 elevated AST/ALT events, elevated bilirubin levels or hepatic AEs [7]: did not exhibit | STD10 ([8]; Sprague-Dawley, 13 weeks): 7.5 mg/kg/day | increases in AST, ALT, GLDH and ALP activities [8]: minimal or mild | NOAEL at 13 weeks (in vivo [9]): 1.88 mg/kg/day | NOAEL at 4 weeks ([10]; beagle, in vivo): 7.5 mg/kg/day | hepatocellular injury in microscopic histology exams ([10]; 4-week): not evident | AST activity ([10]; 4-week, ≥2.5 mg/kg/day): minimally to mildly increased | ALT and GLDH activity ([10]; 4-week, ≥7.5 mg/kg/day): minimally increased
